Test results reported in patent publication US20140044797A1, “PROSTACYCLIN AND ANALOGS THEREOF ADMINISTERED DURING SURGERY FOR PREVENTION AND TREATMENT OF CAPILLARY LEAKAGE” (Rigshospitalet, priority 2011, published 2014).

Experiments:
[1] = in vivo; cited from earlier work
[2] = infusion in doses below 2 ng/kg/minute; cited from earlier work
PAI-1 = experiment: Plasma biomarker ELISA after Flolan infusion: PAI-1; assay type: in vivo, healthy individuals; conditions: 4 ng/kg/min i.v. for 2 h; 8 healthy volunteers; plasma 0-24 h
Description: (§1) Eight healthy volunteers were administered Flolane (Prostacyclin) intravenously at a dose of 4 ng/kg/min for 2 h. Blood samples were analyzed for plasma biomarkers indicative of endothelial cell (thrombomodulin, PAI-1) and glycocalyx (syndecan-1) activation and/or damage, cellular necrosis (histone-complexed DNA fragments, HMGB1) and anticoagulation (protein C, antithrombin, TFPI) at the following time points: Before the infusion (0 h), immediately after ceasing the infusion (2 h) and then 4 h, 5 h, 6 h, 8 h and 24 h after starting the infusion.
(§2) The concentration of the individual biomarkers in plasma was analyzed by commercially available ELISA kits according to the manufactures recommendations. Paired t-tests with p-values <0.05 were considered significant.

[3] = system: histone-complexed DNA fragments; experiment: Plasma biomarker ELISA after Flolan infusion: histone-complexed DNA fragments; assay type: in vivo, healthy individuals; conditions: 4 ng/kg/min i.v. for 2 h; 8 healthy volunteers; plasma 0-24 h
Description: as §1, §2

TFPI = experiment: Plasma biomarker ELISA after Flolan infusion: TFPI; assay type: in vivo, healthy individuals; conditions: 4 ng/kg/min i.v. for 2 h; 8 healthy volunteers; plasma 0-24 h
Description: as §1, §2

thrombomodulin = experiment: Plasma biomarker ELISA after Flolan infusion: thrombomodulin; assay type: in vivo, healthy individuals; conditions: 4 ng/kg/min i.v. for 2 h; 8 healthy volunteers; plasma 0-24 h; effect continuing several hours after ceasing infusion
Description: as §1, §2

blood coagulation = experiment: Thrombelastography (TEG) of whole blood during Flolan infusion; assay type: in vivo, healthy humans; conditions: Flolan 4 ng/kg/min i.v. for 2 h; samples after 60 and 120 min infusion vs baseline; 6 healthy volunteers; kaolin
Description: The TEG analyzer uses a small whole blood sample in a rotating cup and a pin suspended in the blood by a torsion wire, which is monitored for motion. To speed up the clot formation, a standardized amount of an activator of coagulation (e.g. Kaolin, tissue factor) may be added to the cup just before the pin is placed in the cup. The torque of the rotating cup is transmitted to the immersed pin only after fibrin and/or fibrin-platelet bonding has linked the cup and pin together. The strength and rate of these bonds affect the magnitude of the pin motion such that strong clots move the pin directly in phase with cup motion. Thus, the TEG technology documents the interaction of platelets with the protein coagulation cascade from the time of placing the blood in the analyzer until initial fibrin formation, clot rate strengthening and fibrin-platelet bonding via GPIIb/IIIa, through eventual clot lysis. The TEG R parameter reflects the initiation phase, reaction time, from start of coagulation until the first fibrin band is formed; the Angle (α) represents the increase in clot strength, clot kinetics, correlating with the thrombin generation. The maximal amplitude (MA) parameter reflects maximal clot strength i.e. the maximal elastic modus of the clot.
Six healthy volunteers were administered Flolan (prostacyclin analog) intravenously at a dose of 4 ng/kg/min for 2 h. Blood samples for whole blood viscoelastical assay (Thrombelastography [TEG]) and whole blood platelet aggregation (Multiplate) was obtained before infusion of Flolan, after 60 min infusion of Flolan and after 120 min infusion of Flolan.
With regard to the TEG assay this was performed as recommended by the manufacturer and 340 μl are mixed with 20 μl CaCl 0.2 M (final concentration 11.1 mM in the cup) and kaolin at 37° C. after which the haemostatic activity was recorded as shown in WO 2010/075861.

platelet aggregation = experiment: Multiplate whole blood impedance aggregometry during Flolan infusion; assay type: in vivo, healthy humans; conditions: Flolan 4 ng/kg/min i.v. for 2 h; after 60 and 120 min infusion; any of the agonists investigated (ASPI, COL, TRAP, ADP); 6 volunteers
Description: Multiplate whole blood aggregometry is a platelet function test, (Multiplate®, Dynabyte Medical, Munich, Germany). […] The increase of impedance by the attachment of platelets onto the Multiplate sensors is transformed to arbitrary aggregation units (AU) and plotted against time. The aggregation can then be measured in AUC*min (area under the curve*min) determined by the plot of units against time. Additionally, the aggregation can also be expressed in units (U) (1 unit=10 AU*min). Multiplate thereby allows analyzing the effect of compounds on platelet aggregation. […] Blood samples for whole blood viscoelastical assay (Thrombelastography [TEG]) and whole blood platelet aggregation (Multiplate) was obtained before infusion of Flolan, after 60 min infusion of Flolan and after 120 min infusion of Flolan. Whole blood impedance aggregometry was analyzed by the Multiple Platelet function Analyzer (MultiPlate® analyzer). […]

antithrombin = experiment: Plasma biomarker ELISA after Flolan infusion: antithrombin; assay type: in vivo, healthy individuals; conditions: 4 ng/kg/min i.v. for 2 h; 8 healthy volunteers; plasma 0-24 h
Description: as §1, §2

[4] = epoprostenol sodium compared with iloprost; cited from earlier work
HMGB1 = experiment: Plasma biomarker ELISA after Flolan infusion: HMGB1; assay type: in vivo, healthy individuals; conditions: 4 ng/kg/min i.v. for 2 h, 8 healthy volunteers
Description: as §1, §2

syndecan-1 = experiment: Plasma biomarker ELISA after Flolan infusion: syndecan-1; assay type: in vivo, healthy individuals; conditions: 4 ng/kg/min i.v. for 2 h; 8 healthy volunteers; plasma 0-24 h
Description: as §1, §2

Protein C = experiment: Plasma biomarker ELISA after Flolan infusion: Protein C; assay type: in vivo, healthy individuals; conditions: 4 ng/kg/min i.v. for 2 h; 8 healthy volunteers; in the hours after ceasing the infusion
Description: as §1, §2

## CC#CCC(C)[C@H](O)/C=C/[C@@H]1[C@H]2c3cccc(CCCC(=O)O)c3O[C@H]2C[C@H]1O (mixture of isomers) [beraprost]
[1]
  half time: 35 to 40 min

## CCCCC[C@H](O)/C=C/[C@@H]1[C@H]2C/C(=C/CCCC(=O)O)O[C@H]2C[C@H]1O [Flolan, epoprostenol sodium]
[2]
  duration of hypotensive episodes: 1 to 2 h
  side effects: bleeding tendency: no bleeding tendency
  side effects: hypotensive episodes: a few self-limiting hypotensive episodes
PAI-1
  circulating level of PAI-1: declined
[3]
  cell necrosis biomarker histone-complexed DNA fragments: did not influence
TFPI
  circulating level of TFPI: did not induce or influence glycocalyx shedding (syndecan-1) (FIG. 6A) or affected the circulating level of TFPI
thrombomodulin
  circulating level of thrombomodulin: marked decrease
Blood coagulation
  TEG Angle vs baseline: No significant difference
  TEG MA vs baseline: No significant difference
  TEG R vs baseline: No significant difference
Platelet aggregation
  Multiplate values vs baseline: no significant difference
antithrombin
  circulating level of antithrombin: decreased
[4]
  relative potency: equipotent
HMGB1; 5 h after starting infusion, p=0.056
  HMGB1 at 5 h: tendency towards a reduction
HMGB1; plasma 0-24 h
  cell necrosis biomarker HMGB1: did not influence
syndecan-1
  glycocalyx shedding (syndecan-1): did not induce or influence
Protein C
  circulating level of Protein C: decreased
[1]
  half time: 0.5 to 3 min

## CC#CCC(C)[C@H](O)/C=C/[C@@H]1[C@H]2C/C(=C/CCCC(=O)O)C[C@H]2C[C@H]1O (stereo partly shown) [iloprost]
[4]
  relative potency: equipotent
[1]
  half time: 20 to 30 min

## CCCCC[C@H](O)CC[C@@H]1[C@H]2Cc3cccc(OCC(=O)O)c3C[C@H]2C[C@H]1O [treprostinil]
[1]
  half time: less than 4 hours
